Measurements published in patent US20100068302A1, “METHODS AND COMPOSITIONS FOR THE TREATMENT OF CANCER” (TRASLATIONAL CANCER DRUGS PHARMA, S.L., priority 2008, published 2010).
Values joined by “and” are separate entries in the source; they are usually repeats but may differ in a detail not shown here. Equal values may be shown once. Read-outs that look alike come from different tables or passages of the source.

Key:
[1] = tested on: primary cultures of resected NSCLC tumours; assay: Primary cultures of NSCLC tumours treated 10 days, Cristal Violet quantification; assay type: cell-based, human; conditions: for RESISTANT (% of samples) / RESISTANT (number of tumour samples) / SENSITIVES (% of samples) / SENSITIVES (number of tumour samples): primary NSCLC tumour cultures, 0-20 μM, 10 days
Source text: Specimens of lung cancer tissue from 84 randomly selected patients who underwent surgical resection of NSCLC between 2001 and 2004 and that were followed up by The Medical Oncology division at La Paz Hospital in Madrid were used for this analysis. No adjuvant therapy was administrated to these patients. The study was approved by the institutional review board of the hospitals, and written informed consent was obtained from all patients.
Resected tissues from NSCLC patients were dissociated (Cell dissociation sieve-tissued grinder Kit CD1, SIGMA), and the obtained cells were seeded in 24 well plates (BD, Falcon, Bioscience, San Jose, Calif., USA). […] The final persistent population in each well was quantified by the method of Cristal Violet as previously described (Rodríguez-González, A. et al., Oncogene, 22:8803-8812). […]

[2] = tested on: Human primary bronchial epithelial cells, NHBE (BEC); assay: Cell proliferation assay (MTT), Primary BEC; assay type: cell-based
Description: (§1) All cell lines used in this study were maintained under standard conditions of temperature (37° C.), humidity (95%), and carbon dioxide (5%). Human primary bronchial epithelial cells, NHBE (BEC) (Cambrex, CC-2541) were grown in BEGM (Bronchial Epithelial cell growth media) BulletKit (Cambrex, CC-3170). Human primary mammary epithelial cells, HMEC (Clonetics, CC-2551) were grown in MEBM medium supplemented with a bullet kit (Clonetics, CC-3150). Epithelial non-small lung cancer cells H460 and H1299, and small cell lung cancer cell lines H510 and H82 were maintained in RPMI supplemented with 10% Fetal Bovine Serum (FBS) (Life Technologies, Grand Island, N.Y.).
(§2) Cells were seeded on 96-well plates (B D, Falcon, Bioscience, San Jose, Calif., USA) at a density of 6000 cells/well, and incubated for 24 h under standard conditions. […] Absorbance is read at 595 nm in a VersaMax Microplate Reader (Molecular Devices, Sunnyvale, Calif., USA). For sensitization with acid ceramidase inhibitor, cells were pre-treated 4 hours with the correspondent IC50 for NOE before treatment with ChoK inhibitors. NOE (N-Oleoyl ethanolamine) was obtained from Calbiochem (La Jolla, Calif., USA).

[3] = tested on: Human primary mammary epithelial cells, HMEC; assay: Cell proliferation assay (MTT), Primary HMEC; assay type: cell-based
Description: as §1, §2

[4] = tested on: H1299 non-small lung cancer cells; assay: Cell proliferation assay (MTT), H1299; assay type: cell-based; conditions: Homo sapiens
Description: as §1, §2

[5] = tested on: H460 non-small lung cancer cells; assay: Cell proliferation assay (MTT), H460; assay type: cell-based, human
[6] = tested on: H510 small cell lung cancer cells; assay: Cell proliferation assay (MTT), H510; assay type: cell-based; conditions: Homo sapiens
Description: as §1, §2

[7] = tested on: H82 small cell lung cancer cells; assay: Cell proliferation assay (MTT), H82; assay type: cell-based; conditions: Homo sapiens
Description: as §1, §2

[8] = tested on: H460stock cells; assay: Cell proliferation assay (MTT), H460stock control line; assay type: cell-based, human
Description: (§3) Cell lines resistant to MN58b and RSM-932A (identified as MN58R and RSM-932A-R, respectively) were generated by prolonged continuous exposure to increasing concentrations of each drug. A parallel control (H460 stock) of the cell line in the absence of the compounds was kept in culture for the same time.
as §2, with “conditions. Then, cells were treated with different concentrations of the ChoK inhibitors (quadruplicates of each concentration) and maintained for 72 hours.” for “conditions.”
(§4) To further study the mechanism underlying resistance to ChoK inhibition, as well as the implication of acid ceramidase in this effect, we used the human NSCLC-derived H460 cell line for a set of in vitro experiments. […]

[9] = tested on: H460 MN58R cells; assay: Cell proliferation assay (MTT), H460 line resistant to MN58b; assay type: cell-based, human
Description: as §3
as §2, with “conditions. Then, cells were treated with different concentrations of the ChoK inhibitors (quadruplicates of each concentration) and maintained for 72 hours.” for “conditions.”
as §4

[10] = tested on: H460 RSM-932AR cells; assay: Cell proliferation assay (MTT), H460 line resistant to RSM-932A; assay type: cell-based, human
Description: as §3
as §2, with “conditions. Then, cells were treated with different concentrations of the ChoK inhibitors (quadruplicates of each concentration) and maintained for 72 hours.” for “conditions.”
as §4

[11] = tested on: H460 cells; assay: Combination index assay (Chou Talalay) cisplatin plus ChoK inhibitors; assay type: cell-based, human; conditions: cisplatin 3 h followed by 40 h of ChoK inhibitor, CI<1 synergistic, CIs<0.5 strong synergistic
Description: All experiments were performed in quadruplicate.

[12] = tested on: DLD-1 colon cancer derived cells; assay: MTT cytotoxicity, ChoKI and TRAIL, DLD-1; conditions: DLD-1, drug alone
Source text: (§5) To that end, five colon cancer derived cell lines were used: DLD-1, HT-29, HCT-116, SW620 and SW480.

[13] = tested on: HT-29 colon cancer derived cells; assay: MTT cytotoxicity, ChoKI and TRAIL, HT-29; conditions: HT-29, drug alone
Source text: as §5

[14] = tested on: SW620 colon cancer derived cells; assay: MTT cytotoxicity, ChoKI and TRAIL, SW620; conditions: SW620 (FIG. 7B)
Source text: as §5

[15] = tested on: DLD-1, HT-29, HCT-116, SW620 and SW480; assay: MTT sensitivity in five colon cancer derived cell lines; assay type: cell-based; conditions: five colon cancer derived cell lines (FIG. 7)
Source text: as §5

[16] = of 84 patients, nearly 100% of cells alive at 20 μM at day 10
[17] = Homo sapiens, NCI-H460, 72 h, H460, single agent (Table 7), read-out: IC50 72 h
[18] = Homo sapiens, NCI-H460, read-out: IC50

Nc1ccn([C@@H]2O[C@H](CO)[C@@H](O)C2(F)F)c(=O)n1 [Gemcitabine]
RESISTANT (% of samples) [1]: 65.4%
RESISTANT (number of tumour samples) [1]: 34
SENSITIVES (% of samples) [1]: 34.6%
SENSITIVES (number of tumour samples) [1]: 18

CN(C)c1cc[n+](Cc2ccc(CCCCc3ccc(C[n+]4ccc(N(C)C)cc4)cc3)cc2)cc1 [MN58b, 1,4-(4-4′-Bis-((4-(dimethylamine)pyridinium-1-yl)methyl)diphenyl)butane dibromide]
samples highly sensitive (%) ([1]; among the 45 sensitive tumours): 33.3%
samples partially sensitive (%) ([1]; among the 45 sensitive tumours): 66.7%
samples partially sensitive (number) ([1]; among the 45 sensitive tumours, around 50% of cells alive at end of treatment): 30
samples highly sensitive (number) ([1]; among the 45 sensitive tumours, viability abolished at low concentrations, day 10): 15
tumours sensitive to the antiproliferative effect (%) ([1]; of 84 patients, day 10): 53.6%
tumours sensitive to the antiproliferative effect (number) ([1]; of 84 patients, day 10): 45
samples fully resistant (%) [1, 16]: 46,4%
samples fully resistant (number) [1, 16]: 39
RESISTANT (% of samples) [1]: 44.4%
RESISTANT (number of tumour samples) [1]: 28
SENSITIVES (% of samples) [1]: 55.5% and 55%
SENSITIVES (number of tumour samples) [1]: 35
IC50 ([2]; 48 h, read-out: IC50 48 h): 40500 ± 6200 nM
IC50 ([2]; 72 h, read-out: IC50 72 h): 18300 ± 4800 nM
IC50 ([2]; 144 h, read-out: IC50 144 h): 4200 ± 800 nM
IC50 ([3]; 48 h, read-out: IC50 48 h): 44700 ± 4950 nM
IC50 ([3]; 72 h, read-out: IC50 72 h): 20900 ± 2700 nM
IC50 ([3]; 144 h, read-out: IC50 144 h): 3400 ± 130 nM
IC50 ([4]; NCI-H1299, 48 h, read-out: IC50 48 h): 10300 ± 2500 nM
IC50 ([4]; NCI-H1299, 72 h, read-out: IC50 72 h): 2700 ± 700 nM
IC50 ([4]; NCI-H1299, 144 h, read-out: IC50 144 h): 900 ± 100 nM
IC50 ([5]; Homo sapiens, NCI-H460, 48 h, H460, 48 h, read-out: IC50 48 h): 7030 ± 2030 nM
IC50 ([5]; Homo sapiens, NCI-H460, 72 h, H460, 72 h (Table 6), read-out: IC50 72 h): 2600 ± 800 nM
IC50 [5, 17]: 280 nM
IC50 ([5]; Homo sapiens, NCI-H460, 144 h, H460, 144 h, read-out: IC50 144 h): 1100 ± 100 nM
IC50 ([5]; Homo sapiens, NCI-H460, H460 (Table 8), read-out: IC50): 280 nM
IC50 ([6]; NCI-H510, 48 h, read-out: IC50 48 h): 1100 ± 100 nM
IC50 ([6]; NCI-H510, 72 h, read-out: IC50 72 h): 400 ± 50 nM
IC50 ([6]; NCI-H510, 144 h, read-out: IC50 144 h): 100 ± 30 nM
IC50 ([7]; H82, 48 h, read-out: IC50 48 h): 1900 ± 200 nM
IC50 ([7]; H82, 72 h, read-out: IC50 72 h): 800 ± 40 nM
IC50 ([7]; H82, 144 h, read-out: IC50 144 h): 270 ± 10 nM
IC50 ([8]; Homo sapiens, read-out: IC50): 390 nM
IC50 [9, 18]: 19200 nM
IC50 [10, 18]: 28800 nM
Combination index (CI) with cisplatin [11]: 0.1

CCCCCCCC/C=C\CCCCCCCC(=O)NCCO [NOE, N-oleoylethanolamine, reference compound]
IC50 [5, 17]: 32500 nM

CC(=O)O[C@H]1C(=O)[C@@]2(C)[C@H]([C@H](OC(=O)c3ccccc3)[C@]3(O)C[C@H](OC(=O)[C@H](O)[C@@H](NC(=O)c4ccccc4)c4ccccc4)C(C)=C1C3(C)C)[C@]1(OC(C)=O)CO[C@@H]1C[C@@H]2O [Taxol]
RESISTANT (% of samples) [1]: 56.5%
RESISTANT (number of tumour samples) [1]: 35
SENSITIVES (% of samples) [1]: 43.5%
SENSITIVES (number of tumour samples) [1]: 27

CCC1=C[C@@H]2CN(C1)Cc1c([nH]c3ccccc13)[C@@](C(=O)OC)(c1cc3c(cc1OC)N(C)[C@H]1[C@@](O)(C(=O)OC)[C@H](OC(C)=O)[C@]4(CC)C=CCN5CC[C@]31[C@@H]54)C2 [Vinolrelbine, vinorelbine]
RESISTANT (% of samples) [1]: 61.5%
RESISTANT (number of tumour samples) [1]: 24
SENSITIVES (% of samples) [1]: 38.5%
SENSITIVES (number of tumour samples) [1]: 15

[NH2][Pt]([NH2])([Cl])[Cl] [cDDP, cisplatin, reference compound]
RESISTANT (% of samples) [1]: 50%
RESISTANT (number of tumour samples) [1]: 31
SENSITIVES (% of samples) [1]: 50%
SENSITIVES (number of tumour samples) [1]: 31
IC50 ([5]; H460): 5 µg/mL
IC50 [8]: 4.5 µg/mL
IC50 [9]: 2 µg/mL
IC50 [10]: 1.5 µg/mL

TRAIL: extracellular domain of human TRAIL (amino acids 95-281)
cytotoxicity, percentage of cell death [12]: 12%
cytotoxicity [13]: 18%
sensitivity to treatment [14]: nearly resistant
sensitivity across the cell lines [15]: very similar for all cell lines except for SW620
